Assay results taken from PubChem BioAssay (NCI).
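Abbreviation: GI50, concentration required for 50% inhibition of growth. TGI: concentration producing complete growth inhibition.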

Columns and labels:
Test in all cases: growth of human tumour cells (NCI), 384-well format
HCC-2998 colon = test system: HCC-2998 colon
HCT-116 colon = test system: HCT-116 colon
HCT-15 colon = test system: HCT-15 colon
HS 578T breast = test system: HS 578T breast
K-562 leukemia = test system: K-562 leukemia
KM12 colon = test system: KM12 colon
MCF7 breast = test system: MCF7 breast
NCI-H522 lung = test system: NCI-H522 lung
RPMI-8226 leukemia = test system: RPMI-8226 leukemia
SK-MEL-2 melanoma = test system: SK-MEL-2 melanoma
SK-MEL-5 melanoma = test system: SK-MEL-5 melanoma
SK-OV-3 ovarian = test system: SK-OV-3 ovarian
UACC-257 melanoma = test system: UACC-257 melanoma

Compound	GI50 (HCC-2998 colon) [µM]	TGI (HCC-2998 colon) [µM]	GI50 (HCT-116 colon) [µM]	TGI (HCT-116 colon) [µM]	GI50 (HCT-15 colon) [µM]	TGI (HCT-15 colon) [µM]	GI50 (HS 578T breast) [µM]	TGI (HS 578T breast) [µM]	GI50 (K-562 leukemia) [µM]	TGI (K-562 leukemia) [µM]	GI50 (KM12 colon) [µM]	TGI (KM12 colon) [µM]	GI50 (MCF7 breast) [µM]	TGI (MCF7 breast) [µM]	GI50 (NCI-H522 lung) [µM]	TGI (NCI-H522 lung) [µM]	GI50 (RPMI-8226 leukemia) [µM]	TGI (RPMI-8226 leukemia) [µM]	GI50 (SK-MEL-2 melanoma) [µM]	TGI (SK-MEL-2 melanoma) [µM]	also measured
Cc1cc(F)c(C(=O)Nc2cccc(-c3nncn3C(C)C)n2)cc1-n1cnc(C2CC2)c1	16.7	57.2	17.6	71.1	17.6	45.3	8.3	35.2	5.52	21.3	15.6	30.6	12.3	25.9	3.31	13.7	2.09	5.9	19.9	35.5	GI50 (SK-MEL-5 melanoma): 6.96 µM; TGI (SK-MEL-5 melanoma): 19.3 µM; GI50 (SK-OV-3 ovarian): 17.4 µM; TGI (SK-OV-3 ovarian): 38.6 µM; GI50 (UACC-257 melanoma): 16.7 µM; TGI (UACC-257 melanoma): 31.2 µM
C[C@@H](Nc1nc(N[C@H](C)C(F)(F)F)nc(-c2cccc(Cl)n2)n1)C(F)(F)F	> 80.1	> 100	89.3	> 100	> 100	> 100	21.1	63.2	> 100	> 100	> 91.7	> 100	14.5	> 100	> 100	> 100	> 75.8	> 100	14.6	30.2	GI50 (SK-MEL-5 melanoma): 28.2 µM; TGI (SK-MEL-5 melanoma): > 100 µM; GI50 (SK-OV-3 ovarian): > 100 µM; TGI (SK-OV-3 ovarian): > 100 µM; GI50 (UACC-257 melanoma): 98.4 µM; TGI (UACC-257 melanoma): > 100 µM
